Measured values from patent publication US20210252104A1, “ANTIBACTERIAL PEPTIDE MONOMERS AND COMBINATIONS FOR CO-THERAPY” (ARREVUS, INC., priority 2018, published 2021).
Values after ≈ are worked out from the molar mass of the structure shown. Read-outs that look alike come from different tables or passages of the source. Positions of bridges follow the written chain, without caps; N, C: chain ends. Non-standard residues stand in square brackets, D forms with d. Residues, ends and D or L forms follow the SMILES beside them. Chains are numbered I, II in the order given. *: point of attachment. aThr = C[C@H](O)[C@H](N)C(=O)O; Ac6c = NC1(C(=O)O)CCCCC1; Dab = NCC[C@H](N)C(=O)O; Nva = CCC[C@H](N)C(=O)O; NHNH2 = NN*

Tests used:
K. pneumoniae K97/09 [1] = test: FIC checkerboard assay (combinations); assay type: cell-based; conditions: for Effect of combining antimicrobials on MIC: K97/09, with imipenem or colistin
[2] = system: A. baumannii strain (BAA-1605); test: FIC checkerboard assay (combinations); assay type: cell-based; conditions: with imipenem (or colistin)
K. pneumoniae K97/09 [3] = system: K. pneumoniae K97/09
[4] = biological target: 70 kDa bacterial heat shock protein DnaK (Escherichia coli, UniProt P0A6Y8); test: Binding to DnaK
From the text: The bacterial target of peptide monomers described herein, such as Chex1-Arg20, is believed to be the C-terminal D-E helix of the 70 kDa bacterial heat shock protein DnaK (Otvos et al., J. Med. Chem. 48:5349 (2005); Kragol et al., Biochemistry 40:3016 (2001); Bikker et al., Chem. Biol. Drug Des. 68:148 (2006)). DnaK is a 650-residue protein comprised of 3 distinct domains: (1) N-terminal nucleotide binding domain, (2) C-terminal substrate binding domain and (3) flexible linking domain. […] Peptide monomers described herein bind to DnaK from multiple bacterial species. The MPC of Chex1-Arg20 is reported to be >100 μM, supporting the conclusion that the antibacterial efficacy is […] non-membranolytic. Because DnaK is present in all bacteria, peptide monomers described herein are effective against a wide variety of bacteria and may be effective in combination with all classes of antibiotics.

A. baumannii HUMC1 = test: Bacteremia synergy assay 3 (murine bacteremia model); assay type: in vivo
[5] = system: Burkholderia pseudomallei 1026b; assay type: in vivo
[6] = Post-antibiotic effect (PAE)
From the text: Post-antibiotic Effect (PAE).

[7] = Immunogenicity, antibody production by ELISA; assay type: in vivo; conditions: mice; 5 mg/kg sc twice in a 3-wk interval; blood 4 weeks after second immunization
[8] = reported value; cited from earlier work
E. coli 5770 = test: Mice challenged ip with E. coli 5770, blood bacterial counts
in vitro = conditions: rat, H-4-II-E cells (ATCC CRL-1548)
[9] = system: Acinetobacter baumannii BAA-1805 (MACI)
[10] = system: A. baumannii strain (BAA-1605); test: microbe, parasite or virus in culture; assay type: cell-based

70 kDa bacterial heat shock protein DnaK, sequence (P0A6Y8 whole entry, the tested form may be a part): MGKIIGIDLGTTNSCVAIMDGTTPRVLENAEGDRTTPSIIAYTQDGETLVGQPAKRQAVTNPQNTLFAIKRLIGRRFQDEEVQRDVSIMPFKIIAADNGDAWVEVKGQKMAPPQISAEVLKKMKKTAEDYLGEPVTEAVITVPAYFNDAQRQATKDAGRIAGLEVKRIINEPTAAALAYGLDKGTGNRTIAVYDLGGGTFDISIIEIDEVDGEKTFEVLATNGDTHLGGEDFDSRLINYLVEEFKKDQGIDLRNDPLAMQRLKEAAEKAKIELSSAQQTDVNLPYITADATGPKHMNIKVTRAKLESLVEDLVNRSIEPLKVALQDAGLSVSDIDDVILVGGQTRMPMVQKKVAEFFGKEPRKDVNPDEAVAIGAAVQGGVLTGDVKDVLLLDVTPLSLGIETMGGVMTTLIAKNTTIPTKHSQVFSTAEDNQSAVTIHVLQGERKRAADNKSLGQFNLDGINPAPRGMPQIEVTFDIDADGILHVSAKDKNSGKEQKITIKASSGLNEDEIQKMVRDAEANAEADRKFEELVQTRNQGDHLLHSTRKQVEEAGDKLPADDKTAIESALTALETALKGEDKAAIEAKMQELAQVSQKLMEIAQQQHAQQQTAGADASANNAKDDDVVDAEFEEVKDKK

CCC[C@H](NC(=O)[C@H](CCC(=O)O)NC(=O)[C@@H](N)[C@H](C)O)C(=O)N[C@H](C(=O)N[C@@H](C)C(=O)N[C@@H](CC(C)C)C(=O)N[C@@H](CO)C(=O)N[C@@H](CCCNC(=N)N)C(=O)NC1(C(N)=O)CCCCC1)C(C)C [Allo-aca] (H-[aThr]E[Nva]VALSR[Ac6c]-NH2)
Effect of combining antimicrobials on MIC (K. pneumoniae K97/09 [1]): failed to exert any improvement in the MIC values
Effect of combining antimicrobials on MIC [2]: failed to exert any improvement in the MIC values
MIC (K. pneumoniae K97/09 [3]; K97/09): > 256 µg/mL

CC(C)C[C@H](NC(=O)[C@H](Cc1ccc(O)cc1)NC(=O)[C@@H]1CCCN1C(=O)[C@H](CCCNC(=N)N)NC(=O)[C@@H]1CCCN1C(=O)[C@H](CCCCN)NC(=O)[C@H](CC(=O)O)NC(=O)[C@@H]1CCCN1C(=O)[C@H](CCCNC(=N)N)NC(=O)C1(N)CCCCC1)C(=O)N1CCC[C@H]1C(=O)N[C@@H](CCCNC(=N)N)C(=O)N1CCC[C@H]1C(=O)N[C@@H](CCCNC(=N)N)C(=O)N1CCC[C@H]1C(=O)N1CCC[C@H]1C(=O)N[C@@H](CCCNC(=N)N)C(=O)N1CCC[C@H]1C(=O)N[C@H](C(=O)N[C@@H](CCCNC(=N)N)C(N)=O)C(C)C [Example 1, Chex-RPDKPRPYLPRPRPPRPVR-NH2] (H-[Ac6c]RPDKPRPYLPRPRPPRPVR-NH2)
Kd [4]: 0.41 µM
Complete response (negative blood culture), test animals (A. baumannii HUMC1; ARV-1502 5.0 mg/kg treatment group): 100%
Negative blood culture of A. baumannii (A. baumannii HUMC1; ARV-1502 1.25-5.0 mg/kg treatment groups): dose-dependent negative blood culture
Median survival (days post-challenge) ([5]; Chex1-Arg20 5 mg/kg im monotherapy): 4 days post-challenge
Rescue of mice ([5]; Chex1-Arg20 monotherapy): failed to rescue any mouse
B. pseudomallei load in survivals (CFU/spleen) ([5]; in vivo, 5 mg/kg): No survival
Number of deaths ([5]; in vivo, 5 mg/kg): 10
Post-antibiotic effect (PAE) [6]: 14 h
Antibody production by ELISA [7]: Neither IgG1, IgG2a, IgG3, IgM, nor IgE are observed
MIC (E. coli UNT167-1): 32 µg/mL (≈ 12.9 µM)
MPC [8]: > 100 µM
MIC (E. Coli ATCC 29222): 2.6 ± 0.7 µM (≈ 6.44 µg/mL)
MIC (K. Pneumoniae ATCC 13883): 0.8 ± 0.0 µM (≈ 1.98 µg/mL)
MIC (A. Baumannii ATCC 19606): >100 µM
MIC (P. aeruginosa ATCC 47085): 56.3 ± 4.5 µM (≈ 139 µg/mL)
Bacterial counts in blood (E. coli 5770; 2.5 mg/kg ip, 4 h after challenge (before first dose)): 3.68 × 10^7 CFU/mL
Bacterial counts in blood (E. coli 5770; 2.5 mg/kg ip, 8 h after challenge): 4.2 × 10^6 CFU/mL
Bacterial counts in blood (E. coli 5770; 2.5 mg/kg ip, 12 h after challenge): <1.7 × 10^6 CFU/mL
Bacterial counts in blood (E. coli 5770; 2.5 mg/kg ip, 16 h after challenge): <1 × 10^6 CFU/mL
Bacterial counts in blood (E. coli 5770; 2.5 mg/kg ip, 24 h after challenge): <4.8 × 10^5 CFU/mL
Improvement of blood bacterial load (E. coli 5770; 2.5 mg/kg ip, by 24 h): not statistically significant
Reduction of blood bacterial load (E. coli 5770; 2.5 mg/kg ip, during the 12-h treatment period): 1.5-2 log 10 units
Reduction of blood bacterial counts after inoculation (E. coli 5770; 5 mg/kg ip): > 2 log 10 CFU/mL
Bacterial counts in blood (E. coli 5770; 5 mg/kg ip, 4 h after challenge (before first dose)): 3.68 × 10^7 CFU/mL
Bacterial counts in blood (E. coli 5770; 5 mg/kg ip, 8 h after challenge): 4.3 × 10^5 CFU/mL
Bacterial counts in blood (E. coli 5770; 5 mg/kg ip, 12 h after challenge): 1.1 × 10^6 CFU/mL
Bacterial counts in blood (E. coli 5770; 5 mg/kg ip, 16 h after challenge): <1.1 × 10^5 CFU/mL
Bacterial counts in blood (E. coli 5770; 5 mg/kg ip, 24 h after challenge): <1 × 10^3 CFU/mL
Blood sterilization (E. coli 5770; 5 mg/kg ip, at 24 h): complete sterilization of the blood
Time after the last peptide treatment by which the blood was sterilized (E. coli 5770; 10 mg/kg ip): ≤ 4 h
Bacterial counts in blood (E. coli 5770; 10 mg/kg ip, 4 h after challenge (before first dose)): 3.68 × 10^7 CFU/mL
Bacterial counts in blood (E. coli 5770; 10 mg/kg ip, 8 h after challenge): 2.4 × 10^5 CFU/mL
Bacterial counts in blood (E. coli 5770; 10 mg/kg ip, 12 h after challenge): 2.9 × 10^5 CFU/mL
Bacterial counts in blood (E. coli 5770; 10 mg/kg ip, 16 h after challenge): <1 × 10^3 CFU/mL
Bacterial counts in blood (E. coli 5770; 10 mg/kg ip, 24 h after challenge): <1 × 10^3 CFU/mL

CC(C)C[C@H](NC(=O)[C@H](Cc1ccc(O)cc1)NC(=O)[C@@H]1CCCN1C(=O)[C@H](CCCNC(=N)N)NC(=O)[C@@H]1CCCN1C(=O)[C@H](CCCCN)NC(=O)[C@H](CC(=O)O)NC(=O)[C@@H]1CCCN1C(=O)[C@H](CCCNC(=N)N)NC(=O)C1(N)CCCCC1)C(=O)N1CCC[C@H]1C(=O)N[C@@H](CCCNC(=N)N)C(=O)N1CCC[C@H]1C(=O)N[C@@H](CCCNC(=N)N)C(=O)N1CCC[C@H]1C(=O)N1CCC[C@H]1C(=O)N[C@@H](CCCNC(=N)N)C(=O)N1CCC[C@H]1C(=O)N[C@H](C(=O)N[C@@H](CCCNC(=N)N)C(=O)O)C(C)C [Example 6, Chex-RPDKPRPYLPRPRPPRPVR-OH] (H-[Ac6c]RPDKPRPYLPRPRPPRPVR-OH)
MIC (E. Coli ATCC 29222): 6.7 ± 1.3 µM (≈ 16.6 µg/mL)
MIC (K. Pneumoniae ATCC 13883): 2.0 ± 0.1 µM (≈ 4.95 µg/mL)
MIC (A. Baumannii ATCC 19606): >100 µM
MIC (P. aeruginosa ATCC 47085): >100 µM
CC50 (in vitro): 48.1 ± 3.4 µM

CC(C)C[C@H](NC(=O)[C@H](Cc1ccc(O)cc1)NC(=O)[C@@H]1CCCN1C(=O)[C@H](CCCNC(=N)N)NC(=O)[C@@H]1CCCN1C(=O)[C@H](CCCCN)NC(=O)[C@H](CC(=O)O)NC(=O)[C@@H]1CCCN1C(=O)[C@H](CCCNC(=N)N)NC(=O)C1(N)CCCCC1)C(=O)N1CCC[C@H]1C(=O)N[C@@H](CCCNC(=N)N)C(=O)N1CCC[C@H]1C(=O)N[C@@H](CCCNC(=N)N)C(=O)N1CCC[C@H]1C(=O)N1CCC[C@H]1C(=O)N[C@@H](CCCNC(=N)N)C(=O)N1CCC[C@H]1C(=O)N[C@H](C(=O)N[C@@H](CCCNC(=N)N)C(=O)NN)C(C)C [Example 7, Chex-RPDKPRPYLPRPRPPRPVR-NH-NH2] (H-[Ac6c]RPDKPRPYLPRPRPPRPVR-NHNH2; N-terminus assumed)
MIC (E. Coli ATCC 29222): 4.0 ± 1.5 µM (≈ 9.96 µg/mL)
MIC (K. Pneumoniae ATCC 13883): 1.7 ± 0.1 µM (≈ 4.23 µg/mL)
MIC (A. Baumannii ATCC 19606): 52.5 ± 9.5 µM (≈ 131 µg/mL)
MIC (P. aeruginosa ATCC 47085): 28.9 ± 2.7 µM (≈ 72 µg/mL)

Ac-RPDKPRPYLPRPRPPRPVR-NH2 [Example 2, Ac-RPDKPRPYLPRPRPPRPVR-NH2]
MIC (E. Coli ATCC 29222): 3.6 ± 0.1 µM
MIC (K. Pneumoniae ATCC 13883): 2.0 ± 0.2 µM
MIC (A. Baumannii ATCC 19606): >100 µM
MIC (P. aeruginosa ATCC 47085): >100 µM

I: H-[Ac6c]RPDKPRPYLGRPRPPRPVR[Dab]-NH2 / II: H-[Ac6c]RPDKPRPYLGRPRPPRPVR (amide I:21-II:C) [Gly11, (H-Chex-Arg-Pro-Asp-Lys-Pro-Arg-Pro-Tyr-Leu-Gly-Arg-Pro-Arg-Pro-Pro-Arg-Pro-Val-Arg)2-Dab-NH2]
Effect of combining antimicrobials on MIC (K. pneumoniae K97/09 [1]): failed to exert any improvement in the MIC values
Effect of combining antimicrobials on MIC [2]: failed to exert any improvement in the MIC values
KPC MIC (K. pneumoniae K97/09 [3]; K97/09): >256 µg/mL
MACI MIC ([9]; Acinetobacter baumannii (MACI)): >256 µg/mL

I: H-[Ac6c]RPDKPRPYLPRPRPPRPVR[Dab]-NH2 / II: H-[Ac6c]RPDKPRPYLPRPRPPRPVR (amide I:21-II:C; C-terminus assumed) [Example A3-APO, (H-Chex-Arg-Pro-Asp-Lys-Pro-Arg-Pro-Tyr-Leu-Pro-Arg-Pro-Arg-Pro-Pro-Arg-Pro-Val-Arg)2-Dab]
KPC MIC (K. pneumoniae K97/09 [3]; K97/09): 32 to 64 µg/mL
MACI MIC ([9]; BAA-1805): 32 to 64 µg/mL

colistin
ΣFIC (K. pneumoniae K97/09 [1]): 0.08
MIC [10]: < 0.5 µg/mL
KPC MIC (K. pneumoniae K97/09 [3]): 64 µg/mL
MIC (K. pneumoniae K97/09 [3]): 64 µg/mL
MACI MIC ([9]; Acinetobacter baumannii (MACI)): <0.5 µg/mL
